Test results published in paper PMC7660689, “Catechol-Type Flavonoids from the Branches of Elaeagnus glabra f. oxyphylla Exert Antioxidant Activity and an Inhibitory Effect on Amyloid-β Aggregation” (Molecules, 2020).

What was measured:
[1] = DPPH radical scavenging assay; conditions: for DPPH radical scavenging activity: concentrations from 1.5625 to 100 µM; for IC50: isolated compounds, 1.5625-100 µM
Method: ABTS and DPPH radical scavenging assays were performed with reference to the modified method described in previously published reports to examine the antioxidant activities. In the ABTS assay, 7 mM ABTS aqueous solution and 2.45 mM potassium persulfate were reacted for 12–16 h in the dark at room temperature to prepare the ABTS^•+ solution. Subsequently, the reactant was diluted 25-fold to adjust its absorbance at 734 nm to 0.7 by using a spectrophotometer (Benchmark Plus, Bio-Rad, Hercules, CA). The sample solution (100 μL) and ABTS^•+ solution (100 μL) were mixed and incubated for 5 min at room temperature in the dark.
To determine the DPPH radical scavenging activity, the sample solution (100 μL) and 0.15 mM DPPH solution (100 μL) were mixed and incubated for 3 h at room temperature in the dark. The absorbance was measured at 517 nm. Ascorbic acid was used as a positive control for antioxidative activity. The radical scavenging activity (%) was calculated using the following equation:(2) Radical scavenging activity %=1−Absorbance of sample/Absorbance of control × 100

Aβ1–42 peptides = molecular target: T1, Aβ1–42 peptides (Homo sapiens, UniProt P05067); experiment: Thioflavin T (ThT) Aβ aggregation assay; assay type: biochemical; conditions: for Inhibition of Aβ aggregation compared with positive control morin: compounds at 100 μM, morin 100 μM; for IC50: isolated compounds, 6.25-100 µM, ThT fluorescence, read-out: Inhibition of Aβ aggregation IC50
T1 construct: purchased AnaSpec
T1 sequence (P05067 672-713 limits assumed): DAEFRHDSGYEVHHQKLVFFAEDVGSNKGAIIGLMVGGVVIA
Method: To measure the inhibitory effect on Aβ1–42 aggregation, the SensoLyte® Thioflavin T (ThT) β-Amyloid aggregation kit (AnaSpec, Fremont, CA, USA) was used according to the modified manufacturer’s instructions. This assay is based on the property of ThT dye that increases fluorescence when bound to the aggregates of Aβ1–42 peptides. The detailed protocol is described in a previous report. Morin (100 μM) was used as a positive control for the inhibition of Aβ aggregation. Experiments were performed in triplicate and independently repeated three times. The inhibition rate (%) of Aβ aggregation was calculated according to the following equation:(1) Inhibition of Aβ aggregation %=1−Fluorescence of Aβ−treated sample/Fluorescence of untreated sample×100

[2] = ABTS radical scavenging assay; conditions: for Concentration at which ABTS radical scavenging activity reached 100% / IC50: isolated compounds; for IC50: 1.5625-100 µM; for ABTS radical scavenging activity: compounds at 100 μM
Method: ABTS and DPPH radical scavenging assays were performed with reference to the modified method described in previously published reports to examine the antioxidant activities. […] Subsequently, the reactant was diluted 25-fold to adjust its absorbance at 734 nm to 0.7 by using a spectrophotometer (Benchmark Plus, Bio-Rad, Hercules, CA). […] The absorbance was measured at 517 nm. Ascorbic acid was used as a positive control for antioxidative activity.

SMILES	DPPH radical scavenging activity [1]	IC50 [1]	Inhibition of Aβ aggregation compared with positive control morin (Aβ1–42 peptides)	IC50 (Aβ1–42 peptides)	Concentration at which ABTS radical scavenging activity reached 100% [2]	IC50 [2]	ABTS radical scavenging activity [2]	melting point
Oc1cc(O)c2c(c1)O[C@H](c1ccc(O)c(O)c1)[C@@H](O)[C@@H]2c1c(O)cc(O)c2c1O[C@H](c1ccc(O)c(O)c1)[C@@H](O)C2 [Compound 8, procyanidin B3]	< 52%	54.9 µM	comparably to morin	14.6 µM	12.5 µM	3.21 µM	–	–
O=C(O)c1ccccc1O [Compound 2, salicylic acid]	–	–	–	–	–	–	< 66%	–
Oc1cc(O)c2c(c1)O[C@H](c1ccc(O)c(O)c1)[C@@H](O)[C@@H]2c1c(O)cc(O)c2c1O[C@H](c1ccc(O)c(O)c1)[C@H](O)C2 [Compound 9, procyanidin B4]	< 52%	> 100 µM	comparably to morin	32.6 µM	12.5 µM	3.44 µM	–	–
C=C(C)[C@@H]1CC[C@]2(C(=O)O)CC[C@]3(C)C(CCC4[C@@]5(C)CC[C@H](OC(=O)/C=C/c6ccc(O)c(O)c6)C(C)(C)C5CC[C@]43C)C12 (stereo partly drawn) [Compound 14, betulinic acid-3-O-trans-caffeate]	–	–	–	–	–	–	< 66%	270 °C
O=C(C=Cc1ccc(O)cc1)OCC1OC(Oc2c(-c3ccc(O)c(O)c3)oc3cc(O)cc(O)c3c2=O)C(O)C(O)C1O (stereo not drawn) [Compound 13, helichrysoside]	< 52%	> 100 µM	comparably to morin	44.5 µM	25 µM	4.61 µM	–	–
C[C@@H]1CC[C@]2(C(=O)O)CC[C@]3(C)C(=CCC4[C@@]5(C)CC[C@H](OC(=O)/C=C/c6ccc(O)c(O)c6)C(C)(C)C5CC[C@]43C)C2[C@H]1C (stereo partly drawn) [Compound 15, ursolic acid-3-O-trans-caffeate]	–	–	–	–	–	–	< 66%	> 300 °C
O=C(O)c1ccc(O)cc1 [Compound 1, 4-hydroxybenzoic acid]	–	–	–	–	–	–	< 66%	–
